Test results taken from PubChem BioAssay (NCI).
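Compound exposure: 48 hours, 5 concentrations, 96-well plates. GI50 is the concentration that inhibits growth by half. Definition used: TGI = concentration required for complete inhibition of growth.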

Columns and labels:
Test in all cases: NCI-60 cell line screen, 48 h
786-0 renal = test system: 786-0 renal
A498 renal = test system: A498 renal
A549 NSCLC = test system: A549 NSCLC
ACHN renal = test system: ACHN renal
BT-549 breast = test system: BT-549 breast
CAKI-1 renal = test system: CAKI-1 renal
CCRF-CEM leukemia = test system: CCRF-CEM leukemia
COLO 205 colon = test system: COLO 205 colon
DU-145 prostate = test system: DU-145 prostate
HCC-2998 colon = test system: HCC-2998 colon
HCT-116 colon = test system: HCT-116 colon
HCT-15 colon = test system: HCT-15 colon
HL-60(TB) leukemia = test system: HL-60(TB) leukemia
HOP-62 NSCLC = test system: HOP-62 NSCLC
HS 578T breast = test system: HS 578T breast
HT29 colon = test system: HT29 colon
IGROV1 ovarian = test system: IGROV1 ovarian
K-562 leukemia = test system: K-562 leukemia
KM12 colon = test system: KM12 colon
M14 melanoma = test system: M14 melanoma
MALME-3M melanoma = test system: MALME-3M melanoma
MCF7 breast = test system: MCF7 breast
MDA-MB-231 breast = test system: MDA-MB-231 breast
MDA-MB-435 = test system: MDA-MB-435
MOLT-4 leukemia = test system: MOLT-4 leukemia
NCI-H226 lung = test system: NCI-H226 lung
NCI-H23 lung = test system: NCI-H23 lung
NCI-H460 lung = test system: NCI-H460 lung
NCI-H522 lung = test system: NCI-H522 lung
NCI/ADR-RES ovarian = test system: NCI/ADR-RES ovarian
OVCAR-3 ovarian = test system: OVCAR-3 ovarian
OVCAR-4 ovarian = test system: OVCAR-4 ovarian
OVCAR-5 ovarian = test system: OVCAR-5 ovarian
OVCAR-8 ovarian = test system: OVCAR-8 ovarian
PC-3 prostate = test system: PC-3 prostate
RPMI-8226 leukemia = test system: RPMI-8226 leukemia
RXF 393 renal = test system: RXF 393 renal
SF-268 CNS = test system: SF-268 CNS
SF-295 CNS = test system: SF-295 CNS
SF-539 CNS = test system: SF-539 CNS
SK-MEL-28 melanoma = test system: SK-MEL-28 melanoma
SK-MEL-5 melanoma = test system: SK-MEL-5 melanoma
SK-OV-3 ovarian = test system: SK-OV-3 ovarian
SN12C renal = test system: SN12C renal
SNB-19 CNS = test system: SNB-19 CNS
SNB-75 CNS = test system: SNB-75 CNS
SR leukemia = test system: SR leukemia
SW-620 colon = test system: SW-620 colon
T-47D breast = test system: T-47D breast
TK-10 renal = test system: TK-10 renal
UACC-257 melanoma = test system: UACC-257 melanoma
UACC-62 melanoma = test system: UACC-62 melanoma
UO-31 renal = test system: UO-31 renal

Compound `O=C(Cc1ccc(OCc2ccccc2)cc1)NCc1ccc2c(c1)OCO2` has a GI50 (786-0 renal) of 30.3 µM, a TGI (786-0 renal) of over 100 µM and a GI50 (A498 renal) of over 100 µM. The TGI (A498 renal) was over 100 µM, the GI50 (A549 NSCLC) was over 100 µM and the TGI (A549 NSCLC) was over 100 µM. For the same compound, the GI50 (ACHN renal) was over 100 µM, the TGI (ACHN renal) was over 100 µM and the GI50 (BT-549 breast) was over 100 µM. It also gave a TGI (BT-549 breast) of over 100 µM, a GI50 (CAKI-1 renal) of over 100 µM and a TGI (CAKI-1 renal) of over 100 µM. It also gave a GI50 (CCRF-CEM leukemia) of over 100 µM, a TGI (CCRF-CEM leukemia) of over 100 µM and a GI50 (COLO 205 colon) of 14.4 µM. The TGI (COLO 205 colon) was over 100 µM, the GI50 (DU-145 prostate) was over 100 µM and the TGI (DU-145 prostate) was over 100 µM. The GI50 (HCC-2998 colon) was over 100 µM, the TGI (HCC-2998 colon) was over 100 µM and the GI50 (HCT-116 colon) was 30.1 µM. For the same compound, the TGI (HCT-116 colon) was over 100 µM, the GI50 (HCT-15 colon) was 5.31 µM and the TGI (HCT-15 colon) was over 100 µM. It also gave a GI50 (HL-60(TB) leukemia) of 9.3 µM, a TGI (HL-60(TB) leukemia) of over 100 µM and a GI50 (HOP-62 NSCLC) of 6.98 µM. For the same compound, the TGI (HOP-62 NSCLC) was over 100 µM, the GI50 (HS 578T breast) was 9.82 µM and the TGI (HS 578T breast) was over 100 µM. For the same compound, the GI50 (HT29 colon) was 37.9 µM, the TGI (HT29 colon) was over 100 µM and the GI50 (IGROV1 ovarian) was over 100 µM. It also gave a TGI (IGROV1 ovarian) of over 100 µM, a GI50 (K-562 leukemia) of 4.64 µM and a TGI (K-562 leukemia) of over 100 µM. The GI50 (KM12 colon) was 10.8 µM, the TGI (KM12 colon) was over 100 µM and the GI50 (M14 melanoma) was 7.71 µM. For the same compound, the TGI (M14 melanoma) was over 100 µM, the GI50 (MALME-3M melanoma) was 29.2 µM and the TGI (MALME-3M melanoma) was over 100 µM. It also gave a GI50 (MCF7 breast) of 5.43 µM, a TGI (MCF7 breast) of over 100 µM and a GI50 (MDA-MB-231 breast) of 59 µM. For the same compound, the TGI (MDA-MB-231 breast) was over 100 µM, the GI50 (MDA-MB-435) was 2.32 µM and the TGI (MDA-MB-435) was 5.93 µM. For the same compound, the GI50 (MOLT-4 leukemia) was over 100 µM, the TGI (MOLT-4 leukemia) was over 100 µM and the GI50 (NCI-H226 lung) was over 100 µM. For the same compound, the TGI (NCI-H226 lung) was over 100 µM, the GI50 (NCI-H23 lung) was over 100 µM and the TGI (NCI-H23 lung) was over 100 µM. It also gave a GI50 (NCI-H460 lung) of over 100 µM, a TGI (NCI-H460 lung) of over 100 µM and a GI50 (NCI-H522 lung) of over 100 µM. The TGI (NCI-H522 lung) was over 100 µM, the GI50 (NCI/ADR-RES ovarian) was 9.26 µM and the TGI (NCI/ADR-RES ovarian) was over 100 µM. It also gave a GI50 (OVCAR-3 ovarian) of over 100 µM, a TGI (OVCAR-3 ovarian) of over 100 µM and a GI50 (OVCAR-4 ovarian) of over 100 µM. It also gave a TGI (OVCAR-4 ovarian) of over 100 µM, a GI50 (OVCAR-5 ovarian) of over 100 µM and a TGI (OVCAR-5 ovarian) of over 100 µM. It also gave a GI50 (OVCAR-8 ovarian) of over 100 µM, a TGI (OVCAR-8 ovarian) of over 100 µM and a GI50 (PC-3 prostate) of over 100 µM. For the same compound, the TGI (PC-3 prostate) was over 100 µM, the GI50 (RPMI-8226 leukemia) was over 100 µM and the TGI (RPMI-8226 leukemia) was over 100 µM. The GI50 (RXF 393 renal) was 5.18 µM, the TGI (RXF 393 renal) was over 100 µM and the GI50 (SF-268 CNS) was 6.72 µM. The TGI (SF-268 CNS) was over 100 µM, the GI50 (SF-295 CNS) was 64.4 µM and the TGI (SF-295 CNS) was over 100 µM. For the same compound, the GI50 (SF-539 CNS) was 9.11 µM, the TGI (SF-539 CNS) was over 100 µM and the GI50 (SK-MEL-28 melanoma) was over 100 µM. For the same compound, the TGI (SK-MEL-28 melanoma) was over 100 µM, the GI50 (SK-MEL-5 melanoma) was 70.7 µM and the TGI (SK-MEL-5 melanoma) was over 100 µM. It also gave a GI50 (SK-OV-3 ovarian) of 8.18 µM, a TGI (SK-OV-3 ovarian) of over 100 µM and a GI50 (SN12C renal) of over 100 µM. It also gave a TGI (SN12C renal) of over 100 µM, a GI50 (SNB-19 CNS) of 41.9 µM and a TGI (SNB-19 CNS) of over 100 µM. The GI50 (SNB-75 CNS) was 2.17 µM, the TGI (SNB-75 CNS) was 6.53 µM and the GI50 (SR leukemia) was 5.23 µM. The TGI (SR leukemia) was over 100 µM, the GI50 (SW-620 colon) was 7.14 µM and the TGI (SW-620 colon) was over 100 µM. For the same compound, the GI50 (T-47D breast) was 48.3 µM, the TGI (T-47D breast) was over 100 µM and the GI50 (TK-10 renal) was over 100 µM. For the same compound, the TGI (TK-10 renal) was over 100 µM, the GI50 (UACC-257 melanoma) was over 100 µM and the TGI (UACC-257 melanoma) was over 100 µM. For the same compound, the GI50 (UACC-62 melanoma) was 14.3 µM, the TGI (UACC-62 melanoma) was over 100 µM and the GI50 (UO-31 renal) was over 100 µM. The TGI (UO-31 renal) was over 100 µM.
